Results on 14 compounds are retold here after patent publication US9233957B2, “5-carbamoyl-adamantan-2-yl amide derivatives, pharmaceutically acceptable salts thereof and preparation process thereof” (SK BIOPHARMACEUTICALS CO., LTD., priority 2011, dated 2016).

One assay concerns the target T1, Human 11b-HSD1 (Homo sapiens, UniProt P28845).
T1 construct: expressed in transfected cells
Description: Inhibition of cortisone-to-cortisol conversion in CHO-K1 cells over-expressing human 11b-HSD1 (HTRF cortisol assay). The format is cell-based. The settings on record: CHO-K1 cells over-expressing human 11b-HSD1, 160 nM cortisone, 3 hours, 37° C. The text has this: (§1) cDNA (human: Accession No. U12978.2; mouse: Accession No. NM_008288.2) coding the full-length amino acid sequence of 11β-HSD1 in a human and a mouse was incorporated into pMSCVpuro (from Clontech. Co. Ltd.), a vector of expressing a mammalian cell for the production of a retrovirus, and the resulting product was introduced into a GP2-293 cell (from Clontech Co. Ltd.), a retrovirus packing cell line together with pVSV-G vector (from Clontech Co. Ltd.) by using a Lipotamine plus reagent (from Invitrogen Co. Ltd.) in accordance with the method set forth in the appendix (by using HTRF cortisol assay kit from Cisbio assays Co., Ltd., catalog No. 62CO2PEB) and stabilized for 48 hours. Thereafter, viruses being obtained from those cells were used to infect CHO-K1 cell (from Korean Cell Line Bank, KCLB No. 10061) and in 24 hours, the cells were treated with 10 μg/ml pumycin (from Sigma Co. Ltd.) for two weeks to produce a stabilized cell system wherein each 11β-HSD1 in humans or in mice was over-expressed. When the cells being maintained, 5 μg/ml of puromycin was put into the medium and used (RPMI (Gibco), 37° C.). • Reference material: The EMBO Journal (2008) 27, 642-653
(§2) The obtained cells with 11b-HSD1 in a human and a mouse being over-expressed were sub-cultured in a 96-well plate with a cell number being 3×10^4 cells per well and stabilized for 24 hours [RPMI (Gibco), at 37° C., as being used in 5 days after thawing]. After a medium as diluted with DMSO including 160 nM of cortisone (from Sigma Co. Ltd.) and a test compound at a different concentration was put into each well in an amount of 200 ul, the well was cultured in a cell cultivator at 37° C. for 3 hours. 10 ul of the cultured solution was put into a 384 well plate and the amount of cortisol as generated was measured using a cortisol kit (from Cisbio international Co. Ltd, HTRF assay) in accordance with the method set forth in the appended manual.
(§3) As a control group, 160 nM of cortisone and 1% of DMSO were put into a corresponding well. The ground value was obtained from a well including only 160 nM of cortisone and 1% of DMSO without cells just like the control group. The calculation for a % inhibition level was made following the manual as appended. • Reference material: The Journal of Steroid Biochemistry and Molecular Biology, Volume 104, Issues 3-5, May 2007, Pages 123-129 • Bioorganic & Medicinal Chemistry Letters Volume 19, Issue 10, 15 May 2009, Pages 2674-2678
(§4) Like the analyzing method as stated above, the efficacy of inhibiting 11b-HSD1 was calculated as IC50 and the results are shown in Table 1: […]
A general note: TR-FRET usually uses a lanthanide donor and a delayed reading to cut background.

The next assay deals with T2, Mouse 11b-HSD1 (Mus musculus, UniProt P50172).
T2 construct: expressed in transfected cells
T2 sequence (P50172 whole entry): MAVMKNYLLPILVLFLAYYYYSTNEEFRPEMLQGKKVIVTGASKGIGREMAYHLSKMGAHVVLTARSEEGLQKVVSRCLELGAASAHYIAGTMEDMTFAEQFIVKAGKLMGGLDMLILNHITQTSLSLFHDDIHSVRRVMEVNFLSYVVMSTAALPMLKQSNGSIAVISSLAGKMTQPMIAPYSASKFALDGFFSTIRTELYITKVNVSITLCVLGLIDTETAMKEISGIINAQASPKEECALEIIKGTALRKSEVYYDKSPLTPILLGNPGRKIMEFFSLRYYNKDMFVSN
The assay is described as follows: Inhibition of cortisone-to-cortisol conversion in CHO-K1 cells over-expressing mouse 11b-HSD1 (HTRF cortisol assay). Type of assay: cell-based. The settings on record: CHO-K1 cells over-expressing mouse 11b-HSD1, 160 nM cortisone, 3 hours, 37° C.
Excerpt: as §1, §2, §3, §4

Molecules are shown by their SMILES. Some results are limits rather than exact numbers.

T1 sequence (P28845 whole entry): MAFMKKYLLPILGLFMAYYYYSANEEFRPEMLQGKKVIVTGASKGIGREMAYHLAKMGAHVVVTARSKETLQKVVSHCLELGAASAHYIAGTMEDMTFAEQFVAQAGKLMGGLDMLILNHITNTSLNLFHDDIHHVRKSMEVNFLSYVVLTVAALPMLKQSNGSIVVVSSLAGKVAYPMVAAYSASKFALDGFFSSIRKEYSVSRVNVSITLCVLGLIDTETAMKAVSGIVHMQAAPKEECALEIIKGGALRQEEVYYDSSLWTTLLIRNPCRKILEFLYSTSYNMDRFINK

By IC50 is commonly meant the midpoint of a concentration-inhibition curve. A higher IC50 goes with lower potency. Consider `NC(=O)[C@]12CC3CC(C1)[C@@H](NC(=O)c1ccc(-c4ccc([N+](=O)[O-])cc4)o1)C(C3)C2` [Example 3, N-(5-carbamoyl-2-adamantyl)-5-(4-nitrophenyl)furan-2-carboxamide], for which the IC50 at Human 11b-HSD1 was less than 100 nM; on Mouse 11b-HSD1 it was more than 500 nM.

On to `Cc1ccc(-c2ccc(C(=O)N[C@H]3C4CC5CC3C[C@](C(N)=O)(C5)C4)o2)cc1` [Example 4, N-(5-carbamoyl-2-adamantyl)-5-(4-methylphenyl)furan-2-carboxamide], for which the IC50 against Human 11b-HSD1 was less than 100 nM; on Mouse 11b-HSD1 it was 100 to 500 nM.

With `Cc1cccc(-c2cc(C(=O)N[C@H]3C4CC5CC3C[C@](C(N)=O)(C5)C4)no2)c1` [Example 6, N-(5-carbamoyl-2-adamantyl)-5-(3-methylphenyl)-1,2-oxazole-3-carboxamide], the IC50 against Human 11b-HSD1 and against Mouse 11b-HSD1 was more than 500 nM in each case.

Regarding `COc1ccccc1-c1cc(C(=O)N[C@H]2C3CC4CC2C[C@](C(N)=O)(C4)C3)no1` [Example 7, N-(5-carbamoyl-2-adamantyl)-5-(2-methoxyphenyl)-1,2-oxazole-3-carboxamide], the IC50 on Human 11b-HSD1 and at Mouse 11b-HSD1 was more than 500 nM each time.

Take `Cc1ccccc1-c1cc(C(=O)N[C@H]2C3CC4CC2C[C@](C(N)=O)(C4)C3)no1` [Example 8, N-(5-carbamoyl-2-adamantyl)-5-(2-methylphenyl)-1,2-oxazole-3-carboxamide]: the IC50 was 100 to 500 nM against Human 11b-HSD1 and more than 500 nM against Mouse 11b-HSD1.

Turning to `NC(=O)[C@]12CC3CC(C1)[C@@H](NC(=O)c1cc(-c4cccc(F)c4)on1)C(C3)C2` [Example 12, N-(5-carbamoyl-2-adamantyl)-5-(3-fluorophenyl)-1,2-oxazole-3-carboxamide], the IC50 at Human 11b-HSD1 and at Mouse 11b-HSD1 was more than 500 nM each time.

On to `NC(=O)[C@]12CC3CC(C1)[C@@H](NC(=O)c1cc(-c4ccc(Cl)cc4)on1)C(C3)C2` [Example 13, N-(5-carbamoyl-2-adamantyl)-5-(4-chlorophenyl)-1,2-oxazole-3-carboxamide], for which the results for the IC50 against Human 11b-HSD1 and against Mouse 11b-HSD1 were 100 to 500 nM and more than 500 nM, respectively.

On to `Cc1cccc(C(=O)N[C@H]2C3CC4CC2C[C@](C(N)=O)(C4)C3)n1` [Example 15, N-(5-carbamoyl-2-adamantyl)-6-methylpyridine-2-carboxamide], for which the IC50 against Human 11b-HSD1 was less than 100 nM; at Mouse 11b-HSD1 it was 100 to 500 nM.

On to `NC(=O)[C@]12CC3CC(C1)[C@@H](NC(=O)c1ccccn1)C(C3)C2` [Example 16, N-(5-carbamoyl-2-adamantyl)pyridine-2-carboxamide], for which the IC50 at Human 11b-HSD1 and against Mouse 11b-HSD1 was more than 500 nM throughout.

With `Cn1cccc1C(=O)N[C@H]1C2CC3CC1C[C@](C(N)=O)(C3)C2` [Example 17, N-(5-carbamoyl-2-adamantyl)-1-methylpyrrole-2-carboxamide], the IC50 against Human 11b-HSD1 and at Mouse 11b-HSD1 was more than 500 nM each time.

As for `NC(=O)[C@]12CC3CC(C1)[C@@H](NC(=O)c1ccc(-c4cccs4)s1)C(C3)C2` [Example 21, N-(5-carbamoyl-2-adamantyl)-5-thiophen-2-yl-thiophene-2-carboxamide], the IC50 on Human 11b-HSD1 and at Mouse 11b-HSD1 was less than 100 nM each time.

For the compound `NC(=O)[C@]12CC3CC(C1)[C@@H](NC(=O)c1cccs1)C(C3)C2` [Example 22, N-(5-carbamoyl-2-adamantyl)thiophene-2-carboxamide], the IC50 against Human 11b-HSD1 was 100 to 500 nM; on Mouse 11b-HSD1, more than 500 nM.

Take `Cc1csc(C(=O)N[C@H]2C3CC4CC2C[C@](C(N)=O)(C4)C3)c1` [Example 23, N-(5-carbamoyl-2-adamantyl)-4-methylthiophene-2-carboxamide]: the IC50 against Human 11b-HSD1 and against Mouse 11b-HSD1 was 100 to 500 nM throughout.

As to `Cc1noc(C)c1COc1cccc(C(=O)N[C@H]2C3CC4CC2C[C@](C(N)=O)(C4)C3)n1` [Example 48, N-(5-carbamoyl-2-adamantyl)-6-[(3,5-dimethyl-1,2-oxazol-4-yl)methoxy]pyridine-2-carboxamide], the IC50 against Human 11b-HSD1 was less than 100 nM.
